Measurements reported in patent US20250017888A1, “COMPOUNDS FOR TREATING DISEASES ASSOCIATED WITH HYALURONAN OVERPRODUCTION” (THE ROYAL VETERINARY COLLEGE, priority 2021, published 2025).

Experiments:
[1] = test system: fibroblasts; test: Alamar blue staining of fibroblasts; assay type: cell-based; details: Fibroblast
Experimental: (§1) The hyaluronan synthase activity (Prehm, P. and Schumacher, U., Biochem. Pharmacol. 2004, 68, 1401-1410), the cytotoxicity of the drugs (O'Brien, J. et al., Eur. J. Biochem. 2000, 267, 5421-5426), proteoglycan synthesis rate, hyaluronan (Prehm, P. J. Rheumatol., 2005, 32, 690-696) and proteoglycan (Bjornsson, S. Anal. Biochem. 1993, 210, 282-291) were determined as described. The effect of the prenylflavonoids on the MRP5 export rate was measured with fluorescein diacetate as described (Schulz, T., Schumacher, U., and Prehm, P., J Biol. Chem., 2007, 282, 20999-21004). The determination of the IC50 values on the phosphodiesterase 5 was performed according to the instructions of BPS Bioscience. The culture of bovine chondrocytes in alginate beads and of explants of bovine cartilage was described previously (Deiters, B. and Prehm, P. Arthritis Res. Ther., 2008, 10, R8; Prehm, P. J. Rheumatol. 2005, 32, 690-696). Osteoarthritic reactions were induced in chondrocytes growing in alginate beads by incubation with medium containing 10 ng/ml of II-17 for 6 days, and in cartilage explants with 10 ng/ml of II-17 and 5 ng/ml of II-1α. The supernatants were withdrawn and stored at −20° C. for later analysis. The explants were weighed and extracted with 1 ml of 4 M guanidinium-HCl for 72 hours at 4° C. The proteoglycan concentrations were determined in the extracts.

[2] = Alamar blue toxicity assay (FIG. 1); assay type: cell-based; details: below concentrations of 100 μM
Experimental: as §1
The toxicity was determined by the Alamar blue assay.

[3] = test system: hyaluronan export from chondrosarcoma cells; test: Inhibition of hyaluronan export / production in chondrosarcoma cells; assay type: cell-based
Experimental: as §1
Chondrosarcoma cells were plated on a 96 well microtiter plate and in the presence of increasing flavonoid concentrations. After 2 days the concentration of hyaluronan was determined in the culture supernatant.

[4] = test system: Str/ort mice; test: Gait analysis (treadmill, Digigait) in Str/ort mice; assay type: in vivo, mouse
Experimental: At 10-13 weeks of age, 21 male Str/ort mice (n=7/group) were assigned randomly to vehicle, hylin-betaine and xantho-betaine groups and were treated intraperitoneally 18 weeks with either vehicle (5% DMSO in 95% peanut oil), 50 mg/kg compound of Example 1 (“hylin-betaine”) in 5% DMSO and 95% peanut oil or 50 mg/kg compound of Example 2 (“xantho-betaine”) in 5% DMSO and 95% peanut oil.
Gait was monitored using a treadmill-based video system (DigigaitTM system) in three treatment groups of mice at three time point, week 1, week 9 and week 18 of treatment. The number of mice was 7, 7 and 5 in groups 1, 2 and 3, respectively.
[…] gait descriptors were used for the analyses. Thirty-four descriptors were obtained directly from the software of the system in the 4 limbs (LF: left front; RF: right front; LR: left rear; RR: right rear). All the others (143) were calculated indexes from gait measurements including swing, stance, brake, propel and stride times, stride length, frequency and coefficient of variation, paw area and paw angle and the variability of those two traits, the coefficient of variation of swing duration mid line distance, and minimum and maximum dAdT. The ratios of times were calculated in the 4 limbs: Brake, Propel, and Swing times relative to Stance and Stride times, Stance/Swing and Stance/Stride. In addition, the following additional indexes were considered:
In order to investigate whether there were differences among groups for each descriptor at the three experimental dates, an ANOVA was performed using data corresponding to each descriptor and date. Bonferroni correction was applied to counteract the problem of multiple comparisons.
A t-test analysis was also performed comparing only two groups at a time. In order to assess whether differences between both groups could be due to differences in gait change regarding the initial condition (at 2014/12/23), two sets of analyses were performed for data at 2015/02/18 and 2015/04/14, respectively by using Logistic Regression Analysis. The model included two independent variables: the initial value for each descriptor and the difference between the corresponding value at 2015/02/18 (or 2015/04/14) and the initial value. Bonferroni correction was also applied.

[5] = test system: Str/ort mice; test: Micro-CT of tibial trabecular and cortical bone in Str/ort mice; assay type: in vivo, mouse; details: 10-90% of total tibial length, vs vehicle
[6] = 50 mg/kg intraperitoneally, 18 weeks

COc1cc(O)c(CC=C(C)C)c(O)c1C(=O)/C=C/c1ccc(OC(=O)C[N+](C)(C)C)cc1.[Cl-] [Xantho-betaine, (E)-2-(4-(3-(2,4-dihydroxy-6-methoxy-3-(3-methylbut-2-en-1-yl)phenyl)-3-oxoprop-1-en-1-yl)phenoxy)-N,N,N-trimethyl-2-oxoethanaminium chloride]
IC50 [1]: 80 µM
toxicity in Alamar blue assay [2]: not toxic
IC50 [3]: 18 µM
inhibition of hyaluronan export ([3]; culture supernatant after 2 days, comparison with parent compound, particularly below 3 μM): slightly less effective than xanthohumol
mice that refused to run (drop-out) during the gait studies [4, 6]: 2 mice
percentage of drop-out regarding the total number of runs [4, 6]: 13.3%
distribution of gait data (runs) by treatment group ([4]; 2014 Dec. 23): 4
distribution of gait data (runs) by treatment group ([4]; 2015 Apr. 14): 5
distribution of gait data (runs) by treatment group ([4]; 2015 Feb. 18): 4
effect on all gait descriptors ([4]; any time point, compared with vehicle group): no significant effect
effect on cortical bone (overall) [5]: significantly alter
